Source: US8377963B2, “Insulin-regulated aminopeptidase (IRAP) inhibitors and uses thereof” (Howard Florey Institute, priority 2007, dated 2013)

How the values were obtained:
[1] = target: T1, Recombinant human LTA4H (Homo sapiens, UniProt P09960); test: Leukotriene A4 hydrolase assay; type: biochemical; details: 100 μM; read-out: % inhibition of the catalytic activity of the enzyme
T1 construct: purchased Cayman Chemicals
T1 sequence (P09960 1-611): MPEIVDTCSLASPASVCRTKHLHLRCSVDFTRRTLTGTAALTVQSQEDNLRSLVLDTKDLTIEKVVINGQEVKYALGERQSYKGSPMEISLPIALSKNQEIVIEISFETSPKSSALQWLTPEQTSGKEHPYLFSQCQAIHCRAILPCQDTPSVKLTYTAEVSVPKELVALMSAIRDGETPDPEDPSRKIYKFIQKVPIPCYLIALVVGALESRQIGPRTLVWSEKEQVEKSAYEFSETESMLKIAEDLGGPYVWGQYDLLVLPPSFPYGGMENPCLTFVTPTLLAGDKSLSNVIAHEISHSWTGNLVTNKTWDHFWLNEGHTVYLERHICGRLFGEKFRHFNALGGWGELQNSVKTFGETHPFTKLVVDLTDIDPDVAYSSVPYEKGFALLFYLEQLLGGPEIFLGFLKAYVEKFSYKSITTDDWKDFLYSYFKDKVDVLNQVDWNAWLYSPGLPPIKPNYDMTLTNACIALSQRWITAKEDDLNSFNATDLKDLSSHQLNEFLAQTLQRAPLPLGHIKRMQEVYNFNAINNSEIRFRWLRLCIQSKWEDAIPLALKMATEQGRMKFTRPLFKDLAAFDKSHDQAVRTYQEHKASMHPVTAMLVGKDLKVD
Experimental: Leukotriene A4 hydrolase assay. Recombinant human LTA4H (Cayman Chemicals Michigan USA) (1-20 μg) was incubated at room temperature with alanine-p-nitroanilide as substrate in 50 mM Tris-HCl buffer, pH 8.0, containing 100 mM KCl with or without increasing concentrations of an inhibitor. The absorbance at 405 nm was measured at 10 min intervals.
(§1) Limited inhibition of control enzymes was observed.

[2] = target: Angiotensin converting enzyme 1 (Homo sapiens, UniProt P12821); test: Angiotensin converting enzyme assay; type: biochemical; details: read-out: % inhibition of the catalytic activity of the enzyme
Experimental: Angiotensin converting enzyme assay. The enzyme (final concentration 0.02 pmol/100 L) was incubated with 200 μL of assay solution that included 5 mmol/L HHL in 100 mmol/L potassium buffer (pH 8.3) that contained 300 mmol/L NaCl and 10^−4 mol/L ZnSO4 for 3 hours at 37° C. The enzymatic reaction was stopped by the addition of 1.5 mL of 0.28N NaOH, 100 μL of o-phthaldialdehyde (20 mg/mL) in methanol was added and the fluorescent reaction stopped by the addition of 200 μL of 3N HCl. The product, L-His-Leu, was measured fluorometrically (360 nm excitation and 500 nm emission).
as §1

[3] = test system: hippocampal slices; test: Hippocampal glucose uptake assay; type: cell-based; details: rat hippocampal slices
Experimental: Hippocampal glucose uptake assay. Eight week old male Spraque-Dawley rats were deeply anaesthetised with Isofluorothane and killed by decapitation. The brains were rapidly removed and placed into ice-cold, 95% O2, 5% CO2-bubbled artificial cerebrospinal fluid (aCSF: 124 mM NaCl, 2.5 mM KCl, 2 mM CaCl2, 2 mM MgSO4, 26 mM NaHCO3, 1.25 mM NaH2 PO4 pH 7.4) supplemented with 10 mM D-glucose (Sigma). Under aCSF, the hippocampal hemispheres were rapidly dissected out and 200 μm slices prepared on McIllwain tissue chopper with an ice-cold blade and stage. Slices from each hemisphere were kept together and transferred to freshly 95% O2, 5% CO2-bubbled aCSF supplemented with 10 mM D-glucose at 37° C. for 1 hour. All subsequent steps were carried out at 37° C. in a gently shaking chamber with continuous infusion of 95% O2, 5% CO2. Slices from one hemisphere were used as a basal control while slices from the other hemisphere were stimulated, providing an internal control for each animal. […] Tritium content was measured in a Liquid Scintillation Analyser 1900TR (Perkin Elmer, MA, USA).

[4] = test system: rats; test: Novel object recognition task; type: in vivo, rat; details: for Recognition Index: rats, n=10/group
Experimental: All experiments were performed according to the National Health and Medical Research Council of Australia “Code of practise for the care and use of animals for scientific purposes”. Male Spraque Dawley rats, (250-270 g) are housed individually and given water and standard rat chow ad libitum. On the day of surgery, the rats were anaesthetized with 5% isofluorane, placed in a stereotaxic frame and maintained on 2% isofluorane for the duration of the cannula implantation procedure. The rats were stereotaxically implanted with chronic indwelling cannula (Plastics One) into the cerebral lateral ventricles using the following flat skull coordinates 0.8 mm posterior to Bregma, 1.55 mm lateral to midline and 3.5 mm ventral to the dura. The cannula was then secured to the skull with stainless steel screws and dental cement. Seven days following surgery, proper cannula placement was verified by a bolus injection of angiotensin II (1 nmol/μl).
The rats are allowed at least 5 days post-operative recovery prior to use in any behavioural paradigms. On the day of the acquisition trial, the rats were habituated for 5 min in the testing box (made from grey perspex of dimensions 60 cm width×60 cm length×50 cm height) in diffuse dim light and then returned to their home cage. The animals were then rested for at least 2 h and then injected with 1 nmol or 0.1 nmol Compound 2 in 2 μl of 10% dimethyl sulfoxide (DMSO). Control animals received 2 μl of 10% DMSO. Following drug administration, the rats were returned to their home cage for 5 min and then placed in the testing box facing the opposite direction to 2 identical objects that have been secured to the floor in adjacent corners of the box. The rats were allowed 5 min to explore the objects and the definition of explore is that the animal's nose is less than 2 cm from object when it is facing the object. […] The recognition index was determined as the time spent exploring the novel object minus the time spent on the familiar object divided by the time spent on both object.

Sequence of Angiotensin converting enzyme 1 (P12821 30-1306): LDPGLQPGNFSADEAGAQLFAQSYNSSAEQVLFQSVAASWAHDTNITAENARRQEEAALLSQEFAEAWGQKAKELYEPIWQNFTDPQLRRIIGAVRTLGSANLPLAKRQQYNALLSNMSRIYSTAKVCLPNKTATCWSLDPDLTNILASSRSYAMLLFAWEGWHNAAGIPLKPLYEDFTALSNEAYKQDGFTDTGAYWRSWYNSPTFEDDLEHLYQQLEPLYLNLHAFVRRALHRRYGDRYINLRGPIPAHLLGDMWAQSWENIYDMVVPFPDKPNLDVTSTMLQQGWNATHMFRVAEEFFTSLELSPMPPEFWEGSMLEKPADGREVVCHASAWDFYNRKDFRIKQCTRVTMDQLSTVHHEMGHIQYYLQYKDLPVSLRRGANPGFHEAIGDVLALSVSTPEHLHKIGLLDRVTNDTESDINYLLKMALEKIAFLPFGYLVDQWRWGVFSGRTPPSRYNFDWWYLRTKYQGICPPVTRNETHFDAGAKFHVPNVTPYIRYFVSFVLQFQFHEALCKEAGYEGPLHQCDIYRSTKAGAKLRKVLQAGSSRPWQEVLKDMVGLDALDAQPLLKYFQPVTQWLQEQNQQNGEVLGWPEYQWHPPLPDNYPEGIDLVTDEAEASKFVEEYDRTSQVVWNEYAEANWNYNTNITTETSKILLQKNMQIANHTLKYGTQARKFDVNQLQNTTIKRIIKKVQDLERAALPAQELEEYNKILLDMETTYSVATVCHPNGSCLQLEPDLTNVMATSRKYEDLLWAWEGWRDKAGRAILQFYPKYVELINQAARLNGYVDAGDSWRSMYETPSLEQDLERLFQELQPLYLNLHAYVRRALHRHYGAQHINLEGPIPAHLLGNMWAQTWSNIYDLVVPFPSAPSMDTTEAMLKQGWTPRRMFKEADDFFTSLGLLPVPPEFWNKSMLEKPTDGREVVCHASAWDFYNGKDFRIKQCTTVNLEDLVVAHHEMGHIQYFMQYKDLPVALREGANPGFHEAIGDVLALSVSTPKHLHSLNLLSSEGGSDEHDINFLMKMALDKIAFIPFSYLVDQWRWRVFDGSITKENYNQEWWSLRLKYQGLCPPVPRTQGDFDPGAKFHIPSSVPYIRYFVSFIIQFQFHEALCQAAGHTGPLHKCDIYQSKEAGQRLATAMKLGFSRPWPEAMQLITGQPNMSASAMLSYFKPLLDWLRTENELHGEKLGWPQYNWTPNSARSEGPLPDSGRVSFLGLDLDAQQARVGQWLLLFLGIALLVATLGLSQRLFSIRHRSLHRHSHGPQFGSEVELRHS

- inhibition at 100 µM [1]: 0%
- inhibition at 10 µM ([2]; 10 μM): 9%
- inhibition at 100 µM ([2]; 100 μM): 3%
Structure (SMILES): CCOC(=O)C1=C(NC(C)=O)Oc2cc(O)ccc2C1c1cccnc1 (centres unmarked) [Compound 2, Ethyl 2-(acetylamino)-7-hydroxy-4-pyridin-3-yl-4H-chromene-3-carboxylate]
- Fold change in 3H-2DOG uptake ([3]; dbcAMP & compound versus dbcAMP alone (=1), 100 nM): 1.7
- dibutyryl cAMP-evoked glucose uptake [3]: increase in dibutyryl cAMP-evoked glucose uptake
- Recognition Index ([4]; 0.1 nmol intracerebroventricularly): 35.82 ± 7.30
- Recognition Index ([4]; 1 nmol intracerebroventricularly): 45.09 ± 9.97
- recognition of a novel object compared to vehicle treated control rats ([4]; 1 and 0.1 nmole intracerebroventricularly, after 24 h, p<0.05): better recognition of a novel object
